# US11173133B2, “Zeaxanthin formulations with additional ocular-active nutrients, for protecting eye health and treating eye disorders” (ZeaVision LLC, priority 2003, dated 2021)
# Where two headings read alike, the source gives them in different places.
# Tests used:
# macular degeneration [1] = conditions: cited from earlier work
# macular degeneration [2] = conditions: oral dosages; Newsome et al 1988 and others; cited from earlier work
# [3] = small-scale tests of high-dose zeaxanthin in human volunteers (safety, skin tone); format: in vivo; conditions: dosages of 50 to 80 mg/day
# Procedure: (§1) As mentioned above, the categories of pharmaceutical preparations and dietary (nutritional) supplements overlap, and there is no specific upper limit for dosages that would cause a dietary (nutritional) supplement to be reclassified as a pharmaceutical preparation. Safety data that was gathered on zeaxanthin, using high-dosage tests involving rats, indicated a “no adverse effect limit” (NOEL) level of at least 1200 mg/day. […] Accordingly, people who want tans, or who are planning to go on a vacation or other trip that will involve exposure to abnormally high levels of sunlight, may take large quantities of zeaxanthin (up to or even exceeding 100 mg/day), to help them avoid sunburn and obtain a deeper tanned color on their skin. Such use, even at very high quantities, would be regarded as taking a dietary supplement rather than a pharmaceutical, and such dosages would still remain far below the NOAEL levels that were determined by animal tests.
# sunburn = sunburn after controlled high-intensity UV exposure of small skin areas in human volunteers; format: in vivo; conditions: 50 to 80 mg/day; small areas of skin exposed to medical-grade UV lamp
# Procedure: as §1
# wet macular degeneration = assay: laser treatment using verteporfin in a patient with wet macular degeneration taking zeaxanthin; format: in vivo, human; conditions: one patient, daily zeaxanthin capsules before and after treatment
# Source text: As another example of the uncertainties and doubts that surround zeaxanthin among skilled physicians who treat eye diseases, the Inventor has personal knowledge of a patient who has the “wet” (or “exudative”) form of macular degeneration. This disease is characterized by aggressive growth of capillaries in and around certain layers of the retina, and it leads to rapid and devastating loss of vision. The best known treatment for wet AMD is called laser photocoagulation, or photodynamic therapy. It uses a drug called verteporfin, which is activated by a laser that is shone directly into the eyes of patients who have taken the drug. In October of 2003, a ZeaVision customer (a person) who was taking zeaxanthin capsules on a daily basis was scheduled to have a laser treatment using verteporfin, at the Wilmer Eye Institute in Baltimore, which is affiliated with the Johns Hopkins School of Medicine. This patient told their treating physician, who is one of the top experts in the world on treating macular degeneration, that they were taking zeaxanthin capsules on a daily basis. […] The results of that treatment, as measured up until the date this is being written, have been outstanding, and have been much better than was expected by the treating physician. […]
# [4] = rats, high-dosage tests; Roche Vitamins 75-day Premarket Notification, FDA number 95S-0316; cited from earlier work
# [5] = chemical / lab tests, cited from earlier work
# [6] = naturally-occurring dextrorotatory stereoisomer; cited from earlier work
compound,measurement,setting,value
[Zn] [zinc],level of protection against macular degeneration,"macular degeneration [1]; AREDS-1, high dosages (zinc 80 mg/day), some but not all patient categories",low and weak level of protection
same,benefits of zinc in the AREDS-1 trial,"macular degeneration [1]; compared with the combination of vitamins A, C, and E","strong enough to roughly match the benefits provided by a combination of vitamins A, C, and E"
same,results of oral zinc in macular degeneration and other ocular problems,macular degeneration [2],"good, although not especially strong"
CC1=C(/C=C/C(C)=C/C=C/C(C)=C/C=C/C=C(C)/C=C/C=C(C)/C=C/C2=C(C)C[C@@H](O)CC2(C)C)C(C)(C)C[C@H](O)C1 [zeaxanthin],safety in human volunteers,[3],entirely safe
same,risk and severity of sunburn,sunburn,effective in reducing a person's risk and severity of sunburn
same,results of laser-verteporfin treatment,wet macular degeneration,outstanding
same,"""no adverse effect limit"" (NOEL) level",[4],at least 1200 mg/day
same,"potency in absorbing and quenching oxygen free radicals (anti-oxidant), versus lutein",[5],more potent and effective than lutein
same,"potency in absorbing and quenching oxygen free radicals (anti-oxidant), versus lutein",[5]; listed as Zeaxanthin,better and more potent anti-oxidant than lutein
O=C(O)CCCC[C@@H]1CCSS1 (racemic) [lipoic acid],anti-oxidant activity versus S (levorotatory) isomers,[6],better anti-oxidant activity
